According to patent publication US11252962B2, “Cyclopropylpyridyl group-containing benzimidazole compound or salt thereof, agricultural and horticultural insecticide comprising the compound or the salt, and method for using the insecticide” (NIHON NOHYAKU CO., LTD., priority 2017, dated 2022):

Key:
Myzus persicae = test: Test for control efficacy on Myzus persicae; format: in vivo; conditions: 144 h, foliar application to potted Chinese cabbage, 6 days after application, read-out: control efficacy (control rate), activity level
Source text: Test for Control Efficacy on Myzus persicae Chinese cabbage plants were planted in plastic pots (diameter: 8 cm, height: 8 cm), Green peach aphids (M. persicae) were propagated on the plants, and the number of surviving Green peach aphids in each pot was counted. […] The agrochemical dispersions were applied to the foliage of the potted Chinese cabbage plants. After the plants were air-dried, the pots were kept in a greenhouse. At 6 days after the foliar application, the number of surviving Green peach aphids on the Chinese cabbage plant in each pot was counted, the control rate was calculated according to the formula shown below, and the control efficacy was evaluated according to the criteria shown below. Control rate=100−{(T×Ca)/(Ta×C)}×100 [Math. 1] Ta: the number of survivors before the foliar application in a treatment plot T: the number of survivors after the foliar application in a treatment plot Ca: the number of survivors before the foliar application in a non-treatment plot C: the number of survivors after the foliar application in a non-treatment plot Criteria A: the control rate is 100%. […] C: the control rate is 80 to 89%.

Laodelphax striatellus = test: Insecticidal test on Laodelphax striatellus; format: in vivo; conditions: 192 h, rice seedlings dipped 30 seconds, 3rd-instar larvae, 8 days after inoculation, read-out: insecticidal efficacy (corrected mortality rate), activity level
Method: Insecticidal Test on Laodelphax striatellus
Rice plant seedlings (variety: Nihonbare) were dipped in the agrochemical dispersions for 30 seconds. After air-dried, each seedling was put into a separate glass test tube and inoculated with ten 3rd-instar larvae of L. striatellus, and then the glass test tubes were capped with cotton plugs. At 8 days after the inoculation, the numbers of surviving larvae and dead larvae were counted, the corrected mortality rate was calculated according to the formula shown below, and the insecticidal efficacy was evaluated according to the criteria shown below. Corrected mortality rate (%)=100×(Survival rate in a non-treatment plot−Survival rate in a treatment plot)/Survival rate in a non-treatment plot [Math. 2] Corrected Mortality Rate A: the corrected mortality rate is 100%.

Plutella xylostella = test: Insecticidal test on Plutella xylostella; format: in vivo; conditions: 144 h, Chinese cabbage seedlings with laid eggs dipped about 30 seconds, 6 days after dip treatment, 25° C., read-out: insecticidal efficacy (corrected mortality rate), activity level
Method: Insecticidal Test on Plutella xylostella
Adults of P. xylostella were released onto Chinese cabbage seedlings and allowed to lay eggs thereon. […] After air-dried, the seedlings were kept in a thermostatic chamber at 25° C. […] This test was conducted in triplicate using 10 adults of P. xylostella per plot. Corrected mortality rate (%)=100×(Number of hatched larvae in a non-treatment plot−Number of hatched larvae in a treatment plot)/Number of hatched larvae in a non-treatment plot [Math. 3]

Ctenocephalides felis = test: Parasiticidal test on Ctenocephalides felis; format: in vivo; conditions: 50 ppm in bovine blood, adults, artificial feeding system 35° C., 24 hours after treatment, read-out: corrected mortality rate
Method: Parasiticidal Test on Ctenocephalides felis
Newly-emerged adults of C. felis were placed into test cages (10 adults per test cage), and the test cages were maintained at 35° C. in an artificial feeding system. At 24 hours after agrochemical treatment, the numbers of surviving and dead adults were counted, and the corrected mortality rate was calculated according to the formula shown below. Corrected mortality rate (%)=100×(Survival rate in a negative control group−Survival rate in a treatment group)/Survival rate in a negative control group [Math.

Rhipicephalus sanguineus = test: Parasiticidal test on Rhipicephalus sanguineus; format: in vivo; conditions: treated filter paper, nymphs, 27° C., 48 hours after treatment, read-out: corrected mortality rate
Method: Parasiticidal Test on Rhipicephalus sanguineus
The diluted formulations were applied dropwise onto filter paper pieces placed in separate vials. The filter paper pieces were dried. Ten nymphs of R. sanguineus were placed into each vial and maintained at 27° C. with 80% humidity under a 12L12D light-dark cycle (L: light time, D: dark time). At 48 hours after agrochemical treatment, the numbers of surviving and dead nymphs were counted, and the corrected mortality rate was calculated according to the formula of Math. 4.

Haemonchus contortus = test: Parasiticidal test on Haemonchus contortus (larval motility); conditions: 1st-instar larvae, 96-well plates, 27° C., 96 hours, read-out: percent inhibition in motility
Source text: Parasiticidal Test on Haemonchus contortus
Eggs of H. contortus were collected from feces of a goat and hatched in water. […] Percent inhibition in motility (%)=100×(Average motility in negative control wells−Average motility in treated wells)/Average motility in negative control wells [Math. 5]

| SMILES | pest or weed control at 500 ppm (Myzus persicae) | mortality at 500 ppm (Laodelphax striatellus) | mortality at 500 ppm (Plutella xylostella) | mortality at 50 ppm (Ctenocephalides felis) | mortality at 100 ppm (Rhipicephalus sanguineus) | inhibition at 100 ppm (Haemonchus contortus) |
| --- | --- | --- | --- | --- | --- | --- |
| CCSc1cc(C2(C#N)CC2)cnc1-c1nc2cc(SC(F)(F)F)ccc2n1C [Compound 1-6] | 100% | 100% | 100% | – | – | – |
| CCS(=O)(=O)c1cc(C2CC2)cnc1-c1nc2cc(S(=O)(=O)C(F)(F)F)ccc2n1C [Compound 1-5, 2-(3-ethylsulfonyl-5-cyclopropylpyridin-2-yl)-1-methyl-5-(trifluoromethylsulfonyl)benzimidazole] | 100% | 100% | 100% | – | – | – |
| CCSc1cc(C2CC2)cnc1-c1nc2cc(SC(F)(F)F)ccc2n1C [Compound 1-1, 2-(3-ethylthio-5-cyclopropylpyridin-2-yl)-1-methyl-5-(trifluoromethylthio)benzimidazole] | 100% | 100% | 100% | – | – | – |
| CCSc1cc(C2(C#N)CC2)cnc1-c1nc2cc(OC(F)(F)F)ccc2n1C [Compound 1-83, 2-(5-(1-cyanocyclopropyl)-3-ethylthiopyridin-2-yl)-1-methyl-5-trifluoromethoxybenzimidazole] | 100% | 100% | 100% | – | – | – |
| CCS(=O)(=O)c1cc(C2(C#N)CC2)cnc1-c1nc2cc(OC(F)(F)F)ccc2n1C [Compound 1-85, 2-(5-(1-cyanocyclopropyl)-3-ethylsulfonyl-pyridin-2-yl)-1-m ethyl-5-trifluoromethoxybenzimidazole] | 100% | 100% | 100% | – | – | – |
| CC[S+]([O-])c1cc(C2CC2)cnc1-c1nc2cc(SC(F)(F)F)ccc2n1C (stereo not drawn) [Compound 1-2, 2-(3-ethylsulfinyl-5-cyclopropylpyridin-2-yl)-1-methyl-5-(trifluoromethylthio)benzimidazole] | 100% | 100% | 100% | – | – | – |
| CCS(=O)(=O)c1cc(C2CC2)cnc1-c1nc2cc([S+]([O-])C(F)(F)F)ccc2n1C (stereo not drawn) [Compound 1-4, 2-(3-ethylsulfonyl-5-cyclopropylpyridin-2-yl)-1-methyl-5-(trifluoromethylsulfinyl)benzimidazole] | 100% | 100% | 100% | ≥ 90% | ≥ 90% | ≥ 50% |
| CCS(=O)(=O)c1cc(C2CC2)cnc1-c1nc2cc(SC(F)(F)F)ccc2n1C [Compound 1-3, 2-(3-ethylsulfonyl-5-cyclopropylpyridin-2-yl)-1-methyl-5-(trifluoromethylthio)benzimidazole] | 100% | 100% | 100% | ≥ 90% | ≥ 90% | ≥ 50% |
| CCS(=O)(=O)c1cc(C2CC2)cnc1-c1nc2cc(OC(F)(F)F)ccc2n1C [Compound 1-27, 2-(5-cyclopropyl-3-ethylsulfonyl-pyridin-2-yl)-1-methyl-5-trifluoromethoxybenzimidazole] | 100% | 100% | 100% | – | – | – |
